Experimental data published in patent US8192962B2, “Processes for detecting toxic substances” (Daikin Industries, Ltd., priority 2001, dated 2012).

System: Energy system protein genes
Assay: DNA chip mRNA expression in yeast, energy system protein genes (Table 4)
Format: cell-based, Saccharomyces cerevisiae S288C
Protocol: Yeast (Saccharomyces cerevisiae S288C (α SUC2mal mel gap2 CUP1)) were incubated at 25° C. on YPD medium (yeast extract 1%, polypepton 2%, glucose 2%). One of toxic chemical substances was added to the cells at logarithmic growth phase, and the cells were further incubated for two hours. Cells were cultured without any chemical substance in the same condition, and were used as control. Concentrations of the chemical substances were defined to inhibit the growth of the yeast but not lead to death.
After completion of the incubation, the culture was centrifuged to collect the cells. To the cells, sodium acetate buffer (50 mM sodium acetate, 10 mM EDTA, 1% SDS) was added, and the mixture was shaken at 65° C. for five minutes, followed by returning to room temperature, and obtaining the supernatant, of which the procedures were repeated two times. To the supernatant, ½ amount of a solution of phenol/chloroform was added, and the mixture was centrifuged to give a supernatant, which was added with an equal amount of chloroform, and the mixture was centrifuged to give a supernatant. To the supernatant, an equal amount of isopropanol containing 0.3 M sodium acetate was added, and the mixture was allowed to stand at room temperature for 30 minutes, after which the mixture was centrifuged to give a sediment of the whole RNAs. Seventy % ethanol was added to the sediment, and the mixture was again centrifuged to give a sediment, which was then dried and dissolved in water. mRNA was isolated from the whole RNAs as followings. In view of the fact that a poly A chain is attached to the 3′ terminus of mRNA, a polynucleotide having a poly T structure which was immobilized on the surface of latex beads was used to trap the mRNA, and then the mRNA was washed and eluted with spine column (Oligotex-dT30<Super>mRNA Purification Kit, Takara). Reverse transcription of the mRNA was conducted with a reverse transcriptase (Super Script II Reverse Transcriptase; catalogue No. 18064-014, GibcoBRL) using fluorescence-labeled nucleotides to give cDNAs that were introduced with Cy3-dUTP or Cy5-dUTP during the reverse transcription.
The labeled cDNAs were dissolved in TE buffer (10mM Tris-HCl/1 mM EDTA, pH8.0), and the solution was dropped on the DNA chip containing the whole genes of yeast (DNA Chip Research Inc. Japan) so that the cDNAs were hybridized on the DNA chip at 65° C. for over 12 hours. The fluoresces intensity of the DNA chip was read with a scanner, and the ratio relative to the fluorescence intensity resulting from the absence of chemical substance was estimated as the following, which is shown in Tables 1 to 9: […]

SMILES: C=CC=O [(14), acrolein]
- The level of expressed mRNA in the presence of chemical substance/The level of expressed mRNA in the absence of chemical substance (yeast gene YAL060W): 0.9
- The level of expressed mRNA in the presence of chemical substance/The level of expressed mRNA in the absence of chemical substance (yeast gene YBL058W, cells incubated two hours with the chemical substance): 1.3
- The level of expressed mRNA in the presence of chemical substance/The level of expressed mRNA in the absence of chemical substance (yeast gene YBL099W, cells incubated two hours with the chemical substance): 0.6
- The level of expressed mRNA in the presence of chemical substance/The level of expressed mRNA in the absence of chemical substance (yeast gene YBR001C, cells incubated two hours with the chemical substance): 1.2
- The level of expressed mRNA in the presence of chemical substance/The level of expressed mRNA in the absence of chemical substance (yeast gene YBR185C, cells incubated two hours with the chemical substance): 1.7
- The level of expressed mRNA in the presence of chemical substance/The level of expressed mRNA in the absence of chemical substance (yeast gene YBR221C, cells incubated two hours with the chemical substance): 0.8
- The level of expressed mRNA in the presence of chemical substance/The level of expressed mRNA in the absence of chemical substance (yeast gene YBR299W): 1.4
- The level of expressed mRNA in the presence of chemical substance/The level of expressed mRNA in the absence of chemical substance (yeast gene YCL040W): 0.7
- The level of expressed mRNA in the presence of chemical substance/The level of expressed mRNA in the absence of chemical substance (yeast gene YCR012W): 0.9
- The level of expressed mRNA in the presence of chemical substance/The level of expressed mRNA in the absence of chemical substance (yeast gene YCR046C, cells incubated two hours with the chemical substance): 1.3
- The level of expressed mRNA in the presence of chemical substance/The level of expressed mRNA in the absence of chemical substance (yeast gene YCR105W, cells incubated two hours with the chemical substance): 1.9
- The level of expressed mRNA in the presence of chemical substance/The level of expressed mRNA in the absence of chemical substance (yeast gene YDL021W): 3.7
- The level of expressed mRNA in the presence of chemical substance/The level of expressed mRNA in the absence of chemical substance (yeast gene YDL067C, cells incubated two hours with the chemical substance): 1.4
- The level of expressed mRNA in the presence of chemical substance/The level of expressed mRNA in the absence of chemical substance (yeast gene YDL078C, cells incubated two hours with the chemical substance): 0.8
- The level of expressed mRNA in the presence of chemical substance/The level of expressed mRNA in the absence of chemical substance (yeast gene YDL107W, cells incubated two hours with the chemical substance): 1.5
- The level of expressed mRNA in the presence of chemical substance/The level of expressed mRNA in the absence of chemical substance (yeast gene YDL174C): 1.1
- The level of expressed mRNA in the presence of chemical substance/The level of expressed mRNA in the absence of chemical substance (yeast gene YDL181W, cells incubated two hours with the chemical substance): 1.1
- The level of expressed mRNA in the presence of chemical substance/The level of expressed mRNA in the absence of chemical substance (yeast gene YDR001C): 1.0
- The level of expressed mRNA in the presence of chemical substance/The level of expressed mRNA in the absence of chemical substance (yeast gene YDR050C, cells incubated two hours with the chemical substance): 1.2
- The level of expressed mRNA in the presence of chemical substance/The level of expressed mRNA in the absence of chemical substance (yeast gene YDR079W, cells incubated two hours with the chemical substance): 1.5
- The level of expressed mRNA in the presence of chemical substance/The level of expressed mRNA in the absence of chemical substance (yeast gene YDR178W, cells incubated two hours with the chemical substance): 1.5
- The level of expressed mRNA in the presence of chemical substance/The level of expressed mRNA in the absence of chemical substance (yeast gene YDR231C): 1.5
- The level of expressed mRNA in the presence of chemical substance/The level of expressed mRNA in the absence of chemical substance (yeast gene YDR298C, cells incubated two hours with the chemical substance): 1.5
- The level of expressed mRNA in the presence of chemical substance/The level of expressed mRNA in the absence of chemical substance (yeast gene YDR377W, cells incubated two hours with the chemical substance): 1.4
- The level of expressed mRNA in the presence of chemical substance/The level of expressed mRNA in the absence of chemical substance (yeast gene YDR529C, cells incubated two hours with the chemical substance): 1.5
- The level of expressed mRNA in the presence of chemical substance/The level of expressed mRNA in the absence of chemical substance (yeast gene YEL024W, cells incubated two hours with the chemical substance): 1.1
- The level of expressed mRNA in the presence of chemical substance/The level of expressed mRNA in the absence of chemical substance (yeast gene YEL039C, cells incubated two hours with the chemical substance): 1.4
- The level of expressed mRNA in the presence of chemical substance/The level of expressed mRNA in the absence of chemical substance (yeast gene YER178W): 0.9
- The level of expressed mRNA in the presence of chemical substance/The level of expressed mRNA in the absence of chemical substance (yeast gene YFL057C): 23.4
- The level of expressed mRNA in the presence of chemical substance/The level of expressed mRNA in the absence of chemical substance (yeast gene YFR053C): 0.6
- The level of expressed mRNA in the presence of chemical substance/The level of expressed mRNA in the absence of chemical substance (yeast gene YGL018C, cells incubated two hours with the chemical substance): 1.2
- The level of expressed mRNA in the presence of chemical substance/The level of expressed mRNA in the absence of chemical substance (yeast gene YGL062W): 1.2
- The level of expressed mRNA in the presence of chemical substance/The level of expressed mRNA in the absence of chemical substance (yeast gene YGL187C, cells incubated two hours with the chemical substance): 0.9
- The level of expressed mRNA in the presence of chemical substance/The level of expressed mRNA in the absence of chemical substance (yeast gene YGL191W, cells incubated two hours with the chemical substance): 1.6
- The level of expressed mRNA in the presence of chemical substance/The level of expressed mRNA in the absence of chemical substance (yeast gene YGL205W, cells incubated two hours with the chemical substance): 1.0
- The level of expressed mRNA in the presence of chemical substance/The level of expressed mRNA in the absence of chemical substance (yeast gene YGL256W, cells incubated two hours with the chemical substance): 0.9
- The level of expressed mRNA in the presence of chemical substance/The level of expressed mRNA in the absence of chemical substance (yeast gene YGR043C): 4.1
- The level of expressed mRNA in the presence of chemical substance/The level of expressed mRNA in the absence of chemical substance (yeast gene YGR062C, cells incubated two hours with the chemical substance, 25° C., YPD medium): 1.2
- The level of expressed mRNA in the presence of chemical substance/The level of expressed mRNA in the absence of chemical substance (yeast gene YGR087C, cells incubated two hours with the chemical substance): 0.7
- The level of expressed mRNA in the presence of chemical substance/The level of expressed mRNA in the absence of chemical substance (yeast gene YGR174C, cells incubated two hours with the chemical substance): 1.6
- The level of expressed mRNA in the presence of chemical substance/The level of expressed mRNA in the absence of chemical substance (yeast gene YGR192C): 1.0
- The level of expressed mRNA in the presence of chemical substance/The level of expressed mRNA in the absence of chemical substance (yeast gene YGR244C): 1.2
- The level of expressed mRNA in the presence of chemical substance/The level of expressed mRNA in the absence of chemical substance (yeast gene YGR254W): 0.6
- The level of expressed mRNA in the presence of chemical substance/The level of expressed mRNA in the absence of chemical substance (yeast gene YHR179W): 5.8
- The level of expressed mRNA in the presence of chemical substance/The level of expressed mRNA in the absence of chemical substance (yeast gene YIL160C): 1.5
- The level of expressed mRNA in the presence of chemical substance/The level of expressed mRNA in the absence of chemical substance (yeast gene YIR031C, cells incubated two hours with the chemical substance): 1.2
- The level of expressed mRNA in the presence of chemical substance/The level of expressed mRNA in the absence of chemical substance (yeast gene YJL052W): 1.3
- The level of expressed mRNA in the presence of chemical substance/The level of expressed mRNA in the absence of chemical substance (yeast gene YJL121C, cells incubated two hours with the chemical substance): 0.9
- The level of expressed mRNA in the presence of chemical substance/The level of expressed mRNA in the absence of chemical substance (yeast gene YJL166W, cells incubated two hours with the chemical substance): 1.9
- The level of expressed mRNA in the presence of chemical substance/The level of expressed mRNA in the absence of chemical substance (yeast gene YJL216C, cells incubated two hours with the chemical substance): 1.1
- The level of expressed mRNA in the presence of chemical substance/The level of expressed mRNA in the absence of chemical substance (yeast gene YJR009C): 1.0
